Data taken from ChEMBL document CHEMBL1201862, “PubChem BioAssay data set” (2004).
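Assay format: 96-well plates, 48-hour exposure. Here, GI50 denotes the concentration required for 50% inhibition of growth.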 The source made the active and inactive calls. Rule as the data show it: active = GI50 up to about 1.1 µM and inactive = higher. Bridge positions count the residues as written; N and C are the ends. Peptide text beside a SMILES is read from it. * marks the point of attachment. Cbz = O=C(OCc1ccccc1)*

How the values were obtained:
Assay in all cases: DTP human tumour cell line panel, 48 h
A498 = system: A498
ACHN = system: ACHN
BT-549 = system: BT-549
CCRF-CEM = system: CCRF-CEM
DU-145 = system: DU-145
HCT-116 = system: HCT-116
KM12 = system: KM12
LOX IMVI = system: LOX IMVI
MDA-MB-435 = system: MDA-MB-435
Malme-3M = system: Malme-3M
OVCAR-4 = system: OVCAR-4
OVCAR-5 = system: OVCAR-5
RPMI-8226 = system: RPMI-8226
SF-295 = system: SF-295
SK-MEL-28 = system: SK-MEL-28
SR = system: SR
UACC-62 = system: UACC-62
CAKI-1 = system: CAKI-1
NCI/ADR-RES = system: NCI/ADR-RES

Row | SMILES | GI50 (A498) | GI50 (ACHN) | GI50 (BT-549) | GI50 (CCRF-CEM) | GI50 (DU-145) | GI50 (HCT-116) | GI50 (KM12) | GI50 (LOX IMVI) | GI50 (MDA-MB-435) | GI50 (Malme-3M) | GI50 (OVCAR-4) | GI50 (OVCAR-5) | GI50 (RPMI-8226) | GI50 (SF-295) | GI50 (SK-MEL-28) | GI50 (SR) | GI50 (UACC-62) | GI50 (CAKI-1) | GI50 (NCI/ADR-RES)
1 | O=C(Cc1ccccc1)Nn1c(-c2ccccc2)nc2ccccc2c1=O | 62.7 µM (inactive) | > 100 µM (inactive) | > 100 µM (inactive) | > 100 µM (inactive) | > 100 µM (inactive) | > 100 µM (inactive) | > 100 µM (inactive) | > 100 µM (inactive) | > 100 µM (inactive) | > 100 µM (inactive) | > 100 µM (inactive) | > 100 µM (inactive) | > 100 µM (inactive) | > 100 µM (inactive) | > 100 µM (inactive) | > 100 µM (inactive) | > 100 µM (inactive) | – | –
2 | CCN(CCCl)c1cccc(NC(=O)c2ccc(C(=O)Nc3cccc(CN(C)C)c3)cc2)c1 | 0.136 µM (active) | 0.0354 µM (active) | – | 0.027 µM (active) | 0.0432 µM (active) | 0.0611 µM (active) | 0.129 µM (active) | 0.0277 µM (active) | 0.0243 µM (active) | 0.049 µM (active) | 0.0344 µM (active) | 1.48 µM (inactive) | 0.267 µM (active) | 0.125 µM (active) | 0.165 µM (active) | 0.037 µM (active) | 0.0785 µM (active) | 0.302 µM (active) | 2.76 µM (inactive)
3 | CCOC(=O)c1c(-c2ccc(O)c(OC)c2)c(C#N)c(=S)n(C2OC(CO)C(O)C(O)C2O)c1-c1ccccc1 (stereo unspecified) | > 100 µM (inactive) | > 100 µM (inactive) | – | > 100 µM (inactive) | > 100 µM (inactive) | > 100 µM (inactive) | > 100 µM (inactive) | > 100 µM (inactive) | > 100 µM (inactive) | – | > 100 µM (inactive) | > 100 µM (inactive) | 72.3 µM (inactive) | > 100 µM (inactive) | > 100 µM (inactive) | > 100 µM (inactive) | > 100 µM (inactive) | > 100 µM (inactive) | > 100 µM (inactive)
4 | CCOC(=O)Cn1c2ccc(Br)cc2c2nc3ccccc3nc21 | > 100 µM (inactive) | > 100 µM (inactive) | – | > 100 µM (inactive) | > 100 µM (inactive) | > 100 µM (inactive) | > 100 µM (inactive) | > 100 µM (inactive) | > 100 µM (inactive) | – | – | > 100 µM (inactive) | > 100 µM (inactive) | > 100 µM (inactive) | > 100 µM (inactive) | 88.7 µM (inactive) | > 100 µM (inactive) | > 100 µM (inactive) | > 100 µM (inactive)
5 | O=C(O)c1ccccc1/C=C1/Nc2ccccc2C1=O | > 100 µM (inactive) | 57.3 µM (inactive) | – | 44.9 µM (inactive) | > 100 µM (inactive) | 81.5 µM (inactive) | 37.9 µM (inactive) | 75.9 µM (inactive) | > 100 µM (inactive) | > 100 µM (inactive) | 63.4 µM (inactive) | > 100 µM (inactive) | > 100 µM (inactive) | > 100 µM (inactive) | > 100 µM (inactive) | 66.5 µM (inactive) | > 100 µM (inactive) | > 100 µM (inactive) | > 100 µM (inactive)
6 | CN(C)C(=O)c1nnsc1NN=O | – | > 100 µM (inactive) | – | > 100 µM (inactive) | > 100 µM (inactive) | > 100 µM (inactive) | > 100 µM (inactive) | > 100 µM (inactive) | > 100 µM (inactive) | > 100 µM (inactive) | > 100 µM (inactive) | > 100 µM (inactive) | > 100 µM (inactive) | > 100 µM (inactive) | > 100 µM (inactive) | > 100 µM (inactive) | > 100 µM (inactive) | > 100 µM (inactive) | > 100 µM (inactive)
7 | Cc1nc(=O)[nH]c2c1C(=O)N(C(C)C)C(NC(C)C)S2 (stereo unspecified) | > 100 µM (inactive) | > 100 µM (inactive) | – | > 100 µM (inactive) | > 100 µM (inactive) | > 100 µM (inactive) | > 100 µM (inactive) | 83.6 µM (inactive) | > 100 µM (inactive) | 57.7 µM (inactive) | 57.9 µM (inactive) | > 100 µM (inactive) | > 100 µM (inactive) | > 100 µM (inactive) | > 100 µM (inactive) | – | 76 µM (inactive) | 55.1 µM (inactive) | > 100 µM (inactive)
8 | COc1ccc(C2=CC(c3ccccc3)n3nnnc3N2)cc1 (stereo unspecified) | – | > 100 µM (inactive) | – | > 100 µM (inactive) | > 100 µM (inactive) | > 100 µM (inactive) | > 100 µM (inactive) | > 100 µM (inactive) | > 100 µM (inactive) | – | – | > 100 µM (inactive) | 7.14 µM (inactive) | 52.2 µM (inactive) | – | > 100 µM (inactive) | > 100 µM (inactive) | > 100 µM (inactive) | > 100 µM (inactive)
9 | O=C1CCC2(CC1CC(Sc1ccccc1)Sc1ccccc1)OCCO2 (stereo unspecified) | 74.3 µM (inactive) | 38.6 µM (inactive) | – | 31 µM (inactive) | 88.5 µM (inactive) | – | 27.4 µM (inactive) | 37.4 µM (inactive) | 36.7 µM (inactive) | 29.6 µM (inactive) | 56.1 µM (inactive) | 72.4 µM (inactive) | 30 µM (inactive) | 52.6 µM (inactive) | 85.9 µM (inactive) | 26.4 µM (inactive) | 31.2 µM (inactive) | 34.9 µM (inactive) | 33.4 µM (inactive)
10 | CC1(C)N=C(/C(Cl)=[N+](/[O-])C(=O)c2ccc(F)cc2)C(C)(C)N1O | – | 19.1 µM (inactive) | – | 0.466 µM (active) | 29.6 µM (inactive) | 16.4 µM (inactive) | 26.2 µM (inactive) | 11.7 µM (inactive) | 21.4 µM (inactive) | 16.3 µM (inactive) | 17.9 µM (inactive) | 18 µM (inactive) | 14.2 µM (inactive) | 31.8 µM (inactive) | 15.8 µM (inactive) | 4.16 µM (inactive) | 16.7 µM (inactive) | 20.2 µM (inactive) | 36.6 µM (inactive)
11 | CC(=O)OCC1OC(n2c(C)c(C)c(C)c(C#N)c2=S)C(OC(C)=O)C(OC(C)=O)C1OC(C)=O (stereo unspecified) | > 100 µM (inactive) | 48.5 µM (inactive) | – | > 100 µM (inactive) | > 100 µM (inactive) | 28.6 µM (inactive) | > 100 µM (inactive) | > 100 µM (inactive) | > 100 µM (inactive) | > 100 µM (inactive) | > 100 µM (inactive) | > 100 µM (inactive) | – | 14.8 µM (inactive) | > 100 µM (inactive) | > 100 µM (inactive) | > 100 µM (inactive) | > 100 µM (inactive) | > 100 µM (inactive)
12 | Clc1cccc(-c2sc(-c3ccsc3)cc2Cc2ccsc2)c1 | – | – | – | > 10 µM (inactive) | > 10 µM (inactive) | – | > 10 µM (inactive) | > 10 µM (inactive) | > 10 µM (inactive) | > 10 µM (inactive) | > 10 µM (inactive) | – | > 10 µM (inactive) | > 10 µM (inactive) | > 10 µM (inactive) | > 10 µM (inactive) | > 10 µM (inactive) | > 10 µM (inactive) | –
13 | COc1ccc(C2=NNC(c3cc4cc(Br)ccc4nc3Cl)C2)cc1 (stereo unspecified) | > 25 µM (inactive) | 13.2 µM (inactive) | 14.5 µM (inactive) | 0.13 µM (active) | 11.7 µM (inactive) | 10.5 µM (inactive) | 22.9 µM (inactive) | – | 7.16 µM (inactive) | – | 15.3 µM (inactive) | > 25 µM (inactive) | 5.74 µM (inactive) | – | 15.5 µM (inactive) | 0.185 µM (active) | 22.6 µM (inactive) | 12.6 µM (inactive) | –
14 | O=C(Nc1c(Cl)cc([N+](=O)[O-])cc1Cl)C(=O)C1C(=O)NC(=S)NC1=O | > 100 µM (inactive) | > 100 µM (inactive) | > 100 µM (inactive) | > 100 µM (inactive) | – | > 100 µM (inactive) | > 100 µM (inactive) | > 100 µM (inactive) | > 100 µM (inactive) | > 100 µM (inactive) | > 100 µM (inactive) | > 100 µM (inactive) | > 100 µM (inactive) | > 100 µM (inactive) | > 100 µM (inactive) | > 10 µM (inactive) | > 100 µM (inactive) | > 100 µM (inactive) | > 100 µM (inactive)
15 | O=[N+]([O-])c1ncc(N(CCO)CCO)s1 | 65.5 µM (inactive) | 37.7 µM (inactive) | 26.5 µM (inactive) | 22.8 µM (inactive) | 65.9 µM (inactive) | 37.1 µM (inactive) | > 100 µM (inactive) | 15.6 µM (inactive) | 34.8 µM (inactive) | 18.2 µM (inactive) | > 100 µM (inactive) | 78.5 µM (inactive) | 19.5 µM (inactive) | > 100 µM (inactive) | 16.4 µM (inactive) | 43.8 µM (inactive) | 19.8 µM (inactive) | > 100 µM (inactive) | –
16 | CNC(=O)C1CCCCNC(=O)CCC(NC(=O)OCc2ccccc2)C(=O)N1 (stereo not drawn) (Cbz-Glu-Lys-NHMe; lactam 1-2; configuration not given here) | 39.5 µM (inactive) | > 100 µM (inactive) | – | > 100 µM (inactive) | > 100 µM (inactive) | > 100 µM (inactive) | > 100 µM (inactive) | > 100 µM (inactive) | > 100 µM (inactive) | > 100 µM (inactive) | > 100 µM (inactive) | > 100 µM (inactive) | > 100 µM (inactive) | > 100 µM (inactive) | > 100 µM (inactive) | – | > 100 µM (inactive) | > 100 µM (inactive) | > 100 µM (inactive)
